Drawing on US12479847B2 (DANA-FARBER CANCER INSTITUTE, INC., priority 2019, dated 2025), this text covers remaining binding for three compounds.

What all share (test): KINOMEscan (ScanMAX) kinase profiling
Holding throughout (format): binding

In assay [1] the target is T1, panel of 468 kinases (Homo sapiens, UniProt O94768).
T1 construct: purchased KINOMEscan (ScanMAX) service
T1 sequence (O94768 1-372): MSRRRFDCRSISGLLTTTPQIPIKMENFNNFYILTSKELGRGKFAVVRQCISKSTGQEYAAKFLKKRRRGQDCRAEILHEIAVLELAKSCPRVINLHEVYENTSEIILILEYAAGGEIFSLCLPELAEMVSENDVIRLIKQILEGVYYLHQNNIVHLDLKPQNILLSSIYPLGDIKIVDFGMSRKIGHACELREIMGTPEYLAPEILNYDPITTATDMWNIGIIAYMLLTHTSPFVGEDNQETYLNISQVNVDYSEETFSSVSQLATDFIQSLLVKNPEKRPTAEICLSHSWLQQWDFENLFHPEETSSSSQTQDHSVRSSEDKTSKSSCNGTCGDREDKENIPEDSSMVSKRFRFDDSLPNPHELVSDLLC
The conditions noted are these: DRAK2; 1 μM; read-out: % control.

Assay [2] deals with T2, panel of 468 kinases (Homo sapiens, UniProt P00533, L861Q).
T2 construct: purchased KINOMEscan (ScanMAX) service
T2 sequence (P00533 25-1210 L861Q): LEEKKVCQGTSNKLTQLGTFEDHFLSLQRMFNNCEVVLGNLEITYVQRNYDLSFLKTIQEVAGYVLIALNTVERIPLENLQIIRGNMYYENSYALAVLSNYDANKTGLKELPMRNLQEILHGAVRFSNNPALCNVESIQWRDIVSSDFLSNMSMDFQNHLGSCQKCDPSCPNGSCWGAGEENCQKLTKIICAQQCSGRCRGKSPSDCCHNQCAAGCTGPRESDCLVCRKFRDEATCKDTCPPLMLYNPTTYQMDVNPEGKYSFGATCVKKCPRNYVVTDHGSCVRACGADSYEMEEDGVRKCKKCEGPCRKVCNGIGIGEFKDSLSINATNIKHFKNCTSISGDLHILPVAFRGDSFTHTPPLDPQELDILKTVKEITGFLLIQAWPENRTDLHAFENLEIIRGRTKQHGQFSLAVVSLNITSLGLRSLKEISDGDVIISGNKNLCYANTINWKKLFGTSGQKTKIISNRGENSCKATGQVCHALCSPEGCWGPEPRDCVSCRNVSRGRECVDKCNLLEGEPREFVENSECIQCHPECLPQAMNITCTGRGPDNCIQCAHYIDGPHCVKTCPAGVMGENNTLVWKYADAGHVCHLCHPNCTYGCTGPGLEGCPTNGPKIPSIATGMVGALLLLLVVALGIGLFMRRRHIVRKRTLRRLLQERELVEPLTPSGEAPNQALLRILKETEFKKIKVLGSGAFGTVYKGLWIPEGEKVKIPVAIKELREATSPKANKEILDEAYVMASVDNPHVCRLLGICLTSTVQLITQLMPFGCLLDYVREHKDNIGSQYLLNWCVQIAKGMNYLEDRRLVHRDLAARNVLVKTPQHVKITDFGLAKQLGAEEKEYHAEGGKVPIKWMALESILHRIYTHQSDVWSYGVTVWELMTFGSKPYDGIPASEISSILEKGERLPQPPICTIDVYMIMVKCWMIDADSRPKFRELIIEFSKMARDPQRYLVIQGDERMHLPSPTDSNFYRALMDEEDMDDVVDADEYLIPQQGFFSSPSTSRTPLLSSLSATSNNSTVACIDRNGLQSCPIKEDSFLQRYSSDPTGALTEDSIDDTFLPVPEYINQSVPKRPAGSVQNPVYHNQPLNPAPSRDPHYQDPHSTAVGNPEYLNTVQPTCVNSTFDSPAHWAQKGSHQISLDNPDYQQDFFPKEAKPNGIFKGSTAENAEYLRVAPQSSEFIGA
The conditions noted are these: EGFR(L861Q); 1 μM; read-out: % control.

In assay [3] the target is T3, panel of 468 kinases (Homo sapiens, UniProt P19525).
T3 construct: purchased KINOMEscan (ScanMAX) service
T3 sequence (P19525 whole entry): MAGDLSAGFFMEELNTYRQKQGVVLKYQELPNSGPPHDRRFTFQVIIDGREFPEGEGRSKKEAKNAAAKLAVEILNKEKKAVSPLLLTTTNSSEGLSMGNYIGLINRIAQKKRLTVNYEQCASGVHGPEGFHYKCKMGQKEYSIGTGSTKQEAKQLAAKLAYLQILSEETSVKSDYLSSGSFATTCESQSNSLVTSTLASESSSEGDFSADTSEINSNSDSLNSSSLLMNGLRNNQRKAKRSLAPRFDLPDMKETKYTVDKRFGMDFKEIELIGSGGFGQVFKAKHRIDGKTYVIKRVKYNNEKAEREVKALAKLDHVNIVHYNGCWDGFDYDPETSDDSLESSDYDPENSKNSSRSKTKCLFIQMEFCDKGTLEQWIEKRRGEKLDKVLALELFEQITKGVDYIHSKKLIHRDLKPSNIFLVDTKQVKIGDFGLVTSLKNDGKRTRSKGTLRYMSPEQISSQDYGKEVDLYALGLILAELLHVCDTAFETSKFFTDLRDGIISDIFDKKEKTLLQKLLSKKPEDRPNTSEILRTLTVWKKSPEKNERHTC
The conditions noted are these: PRKR; 1 μM; read-out: % control.

Assay [4] concerns the target T4, panel of 468 kinases (Homo sapiens, UniProt P24723).
T4 construct: purchased KINOMEscan (ScanMAX) service
The conditions noted are these: PRKCH; 1 μM; read-out: % control.

Assay [5] has as its target T5, panel of 468 kinases (Homo sapiens, UniProt P37023).
T5 construct: purchased KINOMEscan (ScanMAX) service
The conditions noted are these: ACVRL1; 1 μM; read-out: % control.

Assay [6] addresses T6, panel of 468 kinases (Homo sapiens, UniProt P78356).
T6 construct: purchased KINOMEscan (ScanMAX) service
T6 sequence (P78356 1-416): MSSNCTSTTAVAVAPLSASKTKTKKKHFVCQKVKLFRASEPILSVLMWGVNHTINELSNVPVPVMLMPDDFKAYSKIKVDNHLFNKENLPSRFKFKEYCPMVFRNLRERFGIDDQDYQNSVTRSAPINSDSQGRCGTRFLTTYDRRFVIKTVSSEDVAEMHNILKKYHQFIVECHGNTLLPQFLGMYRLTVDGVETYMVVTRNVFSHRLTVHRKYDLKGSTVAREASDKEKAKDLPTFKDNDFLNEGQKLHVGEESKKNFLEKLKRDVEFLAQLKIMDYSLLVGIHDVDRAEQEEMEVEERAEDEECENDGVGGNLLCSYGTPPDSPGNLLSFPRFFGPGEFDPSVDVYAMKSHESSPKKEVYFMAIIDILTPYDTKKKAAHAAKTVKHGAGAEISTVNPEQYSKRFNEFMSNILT
The conditions noted are these: PIP5K2B; 1 μM; read-out: % control.

Assay [7] deals with T7, panel of 468 kinases (Homo sapiens, UniProt Q04759).
T7 construct: purchased KINOMEscan (ScanMAX) service
T7 sequence (Q04759 whole entry): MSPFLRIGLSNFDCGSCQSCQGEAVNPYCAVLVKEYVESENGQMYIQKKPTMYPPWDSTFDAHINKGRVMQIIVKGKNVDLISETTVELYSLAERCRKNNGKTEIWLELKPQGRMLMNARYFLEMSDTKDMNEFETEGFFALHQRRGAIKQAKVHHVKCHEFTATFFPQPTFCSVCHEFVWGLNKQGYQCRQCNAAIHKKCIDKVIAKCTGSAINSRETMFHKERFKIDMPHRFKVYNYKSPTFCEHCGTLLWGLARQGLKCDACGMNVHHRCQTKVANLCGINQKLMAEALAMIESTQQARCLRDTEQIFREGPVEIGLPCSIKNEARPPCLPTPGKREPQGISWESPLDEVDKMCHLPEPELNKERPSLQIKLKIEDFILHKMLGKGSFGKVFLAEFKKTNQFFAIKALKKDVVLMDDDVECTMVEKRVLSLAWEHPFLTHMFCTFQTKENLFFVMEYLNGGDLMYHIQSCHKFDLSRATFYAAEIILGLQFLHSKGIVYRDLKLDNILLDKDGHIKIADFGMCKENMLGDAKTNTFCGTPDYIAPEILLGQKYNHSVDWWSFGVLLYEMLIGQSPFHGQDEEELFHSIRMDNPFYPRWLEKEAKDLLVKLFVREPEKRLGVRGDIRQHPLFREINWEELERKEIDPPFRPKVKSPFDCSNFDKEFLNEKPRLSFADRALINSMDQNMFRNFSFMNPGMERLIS
The conditions noted are these: PRKCQ; 1 μM; read-out: % control.

Assay [8] concerns the target T8, panel of 468 kinases (Homo sapiens, UniProt Q13164).
T8 construct: purchased KINOMEscan (ScanMAX) service
The conditions noted are these: ERK5; 1 μM; read-out: % control.

Assay [9] has as its target T9, panel of 468 kinases (Homo sapiens, UniProt Q86Y07).
T9 construct: purchased KINOMEscan (ScanMAX) service
The conditions noted are these: VRK2; 1 μM; read-out: % control.

The target in assay [10] is T10, panel of 468 kinases (Homo sapiens, UniProt Q8IVW4).
T10 construct: purchased KINOMEscan (ScanMAX) service
The conditions noted are these: CDKL3; 1 μM; read-out: % control.

Assay [11] concerns the target T11, panel of 468 kinases (Homo sapiens, UniProt Q8IY84).
T11 construct: purchased KINOMEscan (ScanMAX) service
The conditions noted are these: NIM1; 1 μM; read-out: % control.

Assay [12] has as its target T12, panel of 468 kinases (Homo sapiens, UniProt Q9Y2H1).
T12 construct: purchased KINOMEscan (ScanMAX) service
The conditions noted are these: NDR2; 1 μM; read-out: % control.

T11 sequence (Q8IY84 whole entry): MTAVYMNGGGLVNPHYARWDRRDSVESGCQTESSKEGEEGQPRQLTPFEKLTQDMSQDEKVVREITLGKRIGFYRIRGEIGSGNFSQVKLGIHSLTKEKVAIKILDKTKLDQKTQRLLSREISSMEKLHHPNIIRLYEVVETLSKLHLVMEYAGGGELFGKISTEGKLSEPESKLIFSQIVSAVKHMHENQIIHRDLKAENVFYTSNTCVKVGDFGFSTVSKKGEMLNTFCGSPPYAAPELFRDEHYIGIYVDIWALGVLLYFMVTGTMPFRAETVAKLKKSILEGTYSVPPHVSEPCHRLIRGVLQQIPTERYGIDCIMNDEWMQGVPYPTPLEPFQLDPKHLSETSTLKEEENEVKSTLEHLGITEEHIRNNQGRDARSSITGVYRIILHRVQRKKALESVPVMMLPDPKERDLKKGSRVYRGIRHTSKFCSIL
T8 sequence (Q13164 whole entry): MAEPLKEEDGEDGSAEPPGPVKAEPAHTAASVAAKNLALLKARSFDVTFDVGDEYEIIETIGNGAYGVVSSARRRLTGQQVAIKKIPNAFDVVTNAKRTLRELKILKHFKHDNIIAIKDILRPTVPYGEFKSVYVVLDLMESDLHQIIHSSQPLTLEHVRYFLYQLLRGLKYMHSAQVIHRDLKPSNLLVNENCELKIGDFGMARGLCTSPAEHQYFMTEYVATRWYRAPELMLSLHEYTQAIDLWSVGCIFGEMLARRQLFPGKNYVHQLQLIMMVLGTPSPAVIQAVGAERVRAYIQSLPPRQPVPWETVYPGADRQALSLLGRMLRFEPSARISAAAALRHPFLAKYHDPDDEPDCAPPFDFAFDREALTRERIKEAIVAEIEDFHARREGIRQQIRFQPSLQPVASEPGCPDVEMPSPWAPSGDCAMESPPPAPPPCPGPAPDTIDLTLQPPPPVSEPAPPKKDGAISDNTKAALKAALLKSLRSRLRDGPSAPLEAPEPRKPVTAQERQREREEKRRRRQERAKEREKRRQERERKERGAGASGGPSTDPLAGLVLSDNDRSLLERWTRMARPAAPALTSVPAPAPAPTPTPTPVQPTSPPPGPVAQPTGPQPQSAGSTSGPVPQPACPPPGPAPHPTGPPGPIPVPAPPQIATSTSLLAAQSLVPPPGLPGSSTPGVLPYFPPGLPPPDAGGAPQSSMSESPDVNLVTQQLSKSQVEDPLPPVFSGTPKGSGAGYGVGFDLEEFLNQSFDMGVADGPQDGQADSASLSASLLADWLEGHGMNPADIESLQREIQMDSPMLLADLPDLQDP
T5 sequence (P37023 22-503): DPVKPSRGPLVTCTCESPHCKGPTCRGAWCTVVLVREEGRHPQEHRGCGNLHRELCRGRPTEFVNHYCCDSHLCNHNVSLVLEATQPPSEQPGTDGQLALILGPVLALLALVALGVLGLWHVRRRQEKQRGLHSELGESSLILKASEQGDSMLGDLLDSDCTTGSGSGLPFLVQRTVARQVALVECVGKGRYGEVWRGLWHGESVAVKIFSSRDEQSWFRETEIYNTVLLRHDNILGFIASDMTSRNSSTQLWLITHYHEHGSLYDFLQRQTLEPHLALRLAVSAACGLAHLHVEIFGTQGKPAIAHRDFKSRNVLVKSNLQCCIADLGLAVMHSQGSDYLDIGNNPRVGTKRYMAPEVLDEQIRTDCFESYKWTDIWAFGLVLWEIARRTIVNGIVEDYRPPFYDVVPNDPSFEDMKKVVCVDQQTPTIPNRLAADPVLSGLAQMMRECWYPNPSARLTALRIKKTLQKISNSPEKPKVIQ
T4 sequence (P24723 whole entry): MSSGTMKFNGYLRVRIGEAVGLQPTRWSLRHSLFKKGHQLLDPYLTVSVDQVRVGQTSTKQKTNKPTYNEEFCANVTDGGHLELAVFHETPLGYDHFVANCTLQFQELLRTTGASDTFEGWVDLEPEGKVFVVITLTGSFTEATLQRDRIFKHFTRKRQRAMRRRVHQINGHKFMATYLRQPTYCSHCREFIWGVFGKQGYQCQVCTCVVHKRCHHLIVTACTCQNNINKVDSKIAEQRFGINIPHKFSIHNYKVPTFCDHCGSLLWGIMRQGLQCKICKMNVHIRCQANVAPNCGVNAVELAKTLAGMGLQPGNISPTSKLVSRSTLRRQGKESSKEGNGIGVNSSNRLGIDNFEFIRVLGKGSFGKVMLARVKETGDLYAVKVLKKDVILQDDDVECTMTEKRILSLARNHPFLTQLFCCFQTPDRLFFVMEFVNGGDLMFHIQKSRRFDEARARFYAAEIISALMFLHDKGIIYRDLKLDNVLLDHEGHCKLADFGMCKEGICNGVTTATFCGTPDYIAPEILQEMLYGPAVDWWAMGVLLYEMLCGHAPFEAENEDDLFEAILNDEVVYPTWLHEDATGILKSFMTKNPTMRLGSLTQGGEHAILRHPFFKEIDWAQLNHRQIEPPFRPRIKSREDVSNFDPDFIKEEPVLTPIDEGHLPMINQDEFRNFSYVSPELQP

In the case of `CNc1nc(Nc2ccc(C(=O)N3CCC(N4CCOCC4)CC3)c3c2OCO3)nc2[nH]cc(Cl)c12` [Compound 75, (7-((5-chloro-4-(methylamino)-7H-pyrrolo[2,3-d]pyrimidin-2-yl)amino)benzo[d][1,3]dioxol-4-yl)(4-morpholinopiperidin-1-yl)methanone], the remaining binding at 1 µM at panel of 468 kinases [1] was 3.9%; on panel of 468 kinases [2], 100%; on panel of 468 kinases [3], 100%; on panel of 468 kinases [4], 91%; on panel of 468 kinases [5] it was 100%; on panel of 468 kinases [6], 97%. In addition, the remaining binding at 1 µM was 100% on panel of 468 kinases [7]; 51% at panel of 468 kinases [8]; 88% at panel of 468 kinases [9]; 100% at panel of 468 kinases [10]; 73% on panel of 468 kinases [11]; 100% at panel of 468 kinases [12].
On to `CNc1nc(Nc2ccc(P3(=O)CCN(C4CCOCC4)CC3)cc2OC)nc2[nH]cc(Cl)c12` [Compound 77, 4-(4-((5-chloro-4-(methylamino)-7H-pyrrolo[2,3-d]pyrimidin-2-yl)amino)-3-methoxyphenyl)-1-(tetrahydro-2H-pyran-4-yl)-1,4-azaphosphinane 4-oxide], for which the remaining binding at 1 µM amounted to 39% on panel of 468 kinases [1]; 100% at panel of 468 kinases [2]; 100% on panel of 468 kinases [3]; 100% at panel of 468 kinases [4]; 100% at panel of 468 kinases [5]; 100% on panel of 468 kinases [6]. The remaining binding at 1 µM turned out to be 95% on panel of 468 kinases [7]; 78% at panel of 468 kinases [8]; 89% on panel of 468 kinases [9]; 100% on panel of 468 kinases [10]; 88% at panel of 468 kinases [11]; 100% on panel of 468 kinases [12].
On to `CNc1nc(Nc2ccc(S(=O)(=O)N3CCC(N4CCOCC4)CC3)cc2OC)nc2[nH]cc(Cl)c12` [Compound 12, 5-chloro-N2-(2-methoxy-4-((4-morpholinopiperidin-1-yl)sulfonyl)phenyl)-N4-methyl-7H-pyrrolo[2,3-d]pyrimidine-2,4-diamine], for which the remaining binding at 1 µM amounted to 74% on panel of 468 kinases [1]; 100% on panel of 468 kinases [2]; 100% at panel of 468 kinases [3]; 97% on panel of 468 kinases [4]; 100% on panel of 468 kinases [5]; 100% at panel of 468 kinases [6]. Moreover, the remaining binding at 1 µM on panel of 468 kinases [7] came to 100%; at panel of 468 kinases [8], 53%; on panel of 468 kinases [9] it was 94%; on panel of 468 kinases [10], 100%; on panel of 468 kinases [11], 82%; at panel of 468 kinases [12], 100%.
